The source of these data is article PMC6628362, “A New Strategy for Glioblastoma Treatment: In Vitro and In Vivo Preclinical Characterization of Si306, a Pyrazolo[3,4-d]Pyrimidine Dual Src/P-Glycoprotein Inhibitor” (Cancers, 2019).

The structures appear in SMILES notation. Values joined by “and” are separate entries in the source; they are usually repeats but may differ in a detail not shown here. Equal entries are not always repeated. Marks after values point to notes of the source that are not given here.

The test system of one series is LN-229. As to the kind of experiment: MTT cell growth inhibition, LN-229. The format is cell-based, Human. The settings on record: LN-229, MTT, n = 3.
Details of series [1]: method as in PMID 17429625. The settings on record: mice; cited from earlier work.
A further series relates to U87. As to the kind of experiment: MTT cell growth inhibition, U87. The format is cell-based, Human. The settings on record: 72 h, n = 3. The protocol: (§1) Human GBM cell lines U87 and LN-229 were purchased from the American Type Culture Collection, Rockville, MD, USA. U87-TxR cells were selected from U87 cells by continuous exposure to increasing concentrations of PTX [76]. LN-299, U87 and U87-TxR cells were grown in Minimum Essential Medium with 10% fetal bovine serum, 2 mM L-glutamine and 5000 U/mL penicillin, 5 mg/mL streptomycin solution. Cell lines were maintained at 37 °C in a humidified 5% CO2 atmosphere. They were sub-cultured at 72 h intervals using 0.25% trypsin/EDTA and 16,000 cells/cm^2 were seeded into a fresh medium.
(§2) MTT assay was used to assess the viability of U87 and U87-TxR cells (AppliChem GmbH, Taufkirchen, Germany). After reaching the confluence in 25 cm^2 tissue flasks, U87 and U87-TxR cells were trypsinized. Cells were seeded at the optimal density determined in initial experiments: 4000 cell/well into flat-bottomed 96-well tissue culture plates. Following the overnight incubation, cells were treated with Si306, pro-Si306 and dasatinib (1–25 µM) for 72 h. In addition, the combined effects of Si306 and pro-Si306 with PTX were evaluated in MDR GBM cells. To that end, two concentrations of Si306 and pro-Si306 (0.2 μM and 0.5 μM) were combined with increasing concentrations of PTX (0.1–2 μM) in simultaneous treatment. The sensitization of U87-TxR cells to PTX was studied after 72 h. Briefly, MTT was added to each well in a final concentration of 0.2 mg/mL for 4 h to induce the formation of the formazan in cells with intact/viable mitochondria. Then, produced formazan was dissolved in DMSO, and the absorbance was measured at 540 nm on a microplate reader (LKB 5060-006 Micro Plate Reader, Vienna, Austria). IC50 values were calculated by nonlinear regression analysis using GraphPad Prism 6.0 for Windows (GraphPad Software, La Jolla, CA, USA).

Series [2] deals with MCF-7/Adr. Set-up: method as in PMID 25482933. The settings on record: read-out: IC50 cell growth; cited from earlier work.
The test system of the next series is U87-TxR. As to the kind of experiment: MTT cell growth inhibition, MDR U87-TxR. The format is cell-based, Human. The settings on record: 72 h, n = 3. The protocol:
as §1, §2

The target of series [3] is P-gp (Homo sapiens, UniProt P08183). Briefly: Rho 123 accumulation assay (P-gp inhibition) in U87-TxR cells. The settings on record: 30 min; for P-gp activity (Rho 123 intracellular accumulation): 5 µM; for IC50: IC50 of P-gp inhibition, Rho 123 accumulation.
Procedure: At the end of the accumulation period, the cells were pelleted by centrifugation, washed with PBS and placed in cold PBS. The samples were kept on ice in a dark setting until the analysis on CyFlow Space Partec flow-cytometer (Sysmex Partec GmbH, Germany). […] A minimum of 10,000 events was assayed for each sample and the obtained results were analyzed using Summit Dako Software (ver. 4.3, Fort Collins, CO, USA).
The test system of series [4] is P-gp. As to the kind of experiment: Flow-cytometric analysis of P-glycoprotein expression in U87-TxR cells. The format is cell-based, Human. As to conditions: 5 µM, 72 h, flow cytometry. The protocol:
To assess the P-glycoprotein expression level in MDR GBM cells, flow-cytometry was employed. U87-TxR cells seeded in adherent 6-well plates were treated with 5 µM Si306, pro-Si306 or dasatinib for 72 h. Then, cells were collected by trypsinization, washed in PBS, and then directly immuno-stained by FITC-conjugated anti-P-gp antibody (BD Biosciences, Winnersh, Berkshire, UK). To discriminate the level of background fluorescence, an isotype control IgG2bκ (Abcam, Cambridge, United Kingdom) was used. The fluorescence of FITC-conjugated anti-P-gp was analyzed on assessed on the fluorescence channel 1 (FL1) of the CyFlow Space Partec flow-cytometer (Sysmex Partec GmbH, Görlitz, Germany). After gating to exclude the cell debris and dead cells, a minimum of 10,000 cells per sample was assayed. Summit Dako Software was used for the analyses of results obtained by flow-cytometry.

Series [5] deals with MCF-7/Adr. Set-up: method as in PMID 25482933. The settings on record: 0.5 μM dasatinib, 72 h; cited from earlier work.
Another series concerns U87-TxR cells. Briefly: Reversal of paclitaxel resistance, MTT combination treatment. The format is cell-based, Human. As to conditions: 72 h. The protocol:
as §2

For the next series, the system named is BT-138. Briefly: Cell viability, BT-138 (Table S1). The format is cell-based. As to conditions: BT-138, 24 h. The protocol:
1. Cell Growth Inhibition by Dasatinib, Si306 and Pro-Si306
GB cell lines BT138, T98G and A172 were treated with Si306 and pro-Si306 at concentrations ranging from 1 to 100 µM, or with DMSO as a control. Cell viability was evaluated 72 h after treatment for T98G and A172 cell lines and after 24 h for BT-138. In table S1 the IC50 values are reported.
Table S1. Sensitivity of glioblastoma multiforme (GBM) cells to Si306 and pro-Si306 expressed as IC50 […]
Figure S1. Rho 123 accumulation in U87-TxR cells treated with increasing concentrations of TQ (A), Dex-VER (B), Si306 (C) and pro-Si306 (D).
(1 picture or pasted object on this page, not shown here)

Details of series [6]: method as in PMID 28650650. As to conditions: pro-Si306 administrated p.o.; cited from earlier work.
A further series has as its target T1, CYP3A4 (Homo sapiens, UniProt P08684).
T1 construct: Incubations were carried out in a mix containing human liver microsomes (1 mg/mL of protein); from tissue; host or cells: human liver microsomes
Briefly: CYP3A4 inhibition in human liver microsomes (testosterone 6β-hydroxylation). The format is in vitro ADME. The protocol: The inhibition of cytochrome P450 3A4 isoform by Si306 and pro-Si306 was measured by determining its activity on the substrate testosterone.
The activity of CYP3A4 was evaluated by measuring the 6β-hydroxylated testosterone formation (CYP3A4-specific reaction). The amount of 6β-hydroxylated metabolite was assessed in the absence and presence of Si306, pro-Si306 and ketoconazole (testosterone concentration of 100 μM in phosphate buffer 0.025 M, pH 7.4). […] Ketoconazole was used as standard selective inhibitor of CYP3A4 isoenzyme. Incubations were carried out in a mix containing human liver microsomes (1 mg/mL of protein) in phosphate buffer 0.025 M, pH 7.4, NADPH (200 μM) previously solubilized in a MgCl2 48 mM solution. The final incubation volume was 0.25 mL. After a 40 min-incubation period at 37 °C, the reaction was stopped by adding 1 mL of acetonitrile in the presence of corticosterone 2 μM as internal standard. The samples were centrifuged for 20 min at 5000 rpm. Concentrations of testosterone and its metabolite 6β-hydroxytestosterone were assessed by the HPLC method with UV detection. Calibration curve for quantitative analysis of 6β-hydroxytestosterone in the samples was obtained using commercial 6β-hydroxytestosterone purchased from Sigma Aldrich. For the statistical analysis, GraphPad InStat 3.0 (GraphPad Software, San Diego, CA, USA) was used.

On the set-up of series [7]: method as in PMID 28650650. As to conditions: cited from earlier work.
In series [8] the target is Human Serum Albumin (HSA) (Homo sapiens, UniProt P02768). Briefly: Binding fluorimetric assay, HSA. The format is in vitro ADME. As to conditions: 10 µM HSA, fluorescence quenching. The protocol: (§3) In order to determine the binding affinity for Si306 and pro-Si306 to HSA (human serum albumin) and AGP (alpha-1-acid glycoprotein), the protein fluorescence has been monitored by spectroscopy. The quantitative analysis was performed using black 96 multiwell plates: in each well, a fixed concentration of HSA or AGP (10 µM in phosphate buffer 1 mM) was added with different amounts of the tested compound (0.1 µM to 500 µM). Plates were gently shacked and after 30 min at room temperature for equilibration, spectra were recorded from 300 to 400 nm, after excitation at 295 nm, by using a Perkin Elmer EnVision Multilabel Reader 2014 spectrofluorimeter. Finally, spectra were acquired with EnVision Manager ver.1.13 software (Walthman, MA, USA). The obtained non fluorescence quenching percentages were plotted against drug concentrations and the relative KD values were calculated using GraphPad software (version 6.0).

Series [9] concerns Alpha-1-acid glycoprotein (AGP). Briefly: Binding fluorimetric assay, AGP. The format is in vitro ADME. As to conditions: 10 µM AGP, fluorescence quenching. The protocol: as §3

Chain of P-gp (Homo sapiens, UniProt P08183) (P08183 whole entry): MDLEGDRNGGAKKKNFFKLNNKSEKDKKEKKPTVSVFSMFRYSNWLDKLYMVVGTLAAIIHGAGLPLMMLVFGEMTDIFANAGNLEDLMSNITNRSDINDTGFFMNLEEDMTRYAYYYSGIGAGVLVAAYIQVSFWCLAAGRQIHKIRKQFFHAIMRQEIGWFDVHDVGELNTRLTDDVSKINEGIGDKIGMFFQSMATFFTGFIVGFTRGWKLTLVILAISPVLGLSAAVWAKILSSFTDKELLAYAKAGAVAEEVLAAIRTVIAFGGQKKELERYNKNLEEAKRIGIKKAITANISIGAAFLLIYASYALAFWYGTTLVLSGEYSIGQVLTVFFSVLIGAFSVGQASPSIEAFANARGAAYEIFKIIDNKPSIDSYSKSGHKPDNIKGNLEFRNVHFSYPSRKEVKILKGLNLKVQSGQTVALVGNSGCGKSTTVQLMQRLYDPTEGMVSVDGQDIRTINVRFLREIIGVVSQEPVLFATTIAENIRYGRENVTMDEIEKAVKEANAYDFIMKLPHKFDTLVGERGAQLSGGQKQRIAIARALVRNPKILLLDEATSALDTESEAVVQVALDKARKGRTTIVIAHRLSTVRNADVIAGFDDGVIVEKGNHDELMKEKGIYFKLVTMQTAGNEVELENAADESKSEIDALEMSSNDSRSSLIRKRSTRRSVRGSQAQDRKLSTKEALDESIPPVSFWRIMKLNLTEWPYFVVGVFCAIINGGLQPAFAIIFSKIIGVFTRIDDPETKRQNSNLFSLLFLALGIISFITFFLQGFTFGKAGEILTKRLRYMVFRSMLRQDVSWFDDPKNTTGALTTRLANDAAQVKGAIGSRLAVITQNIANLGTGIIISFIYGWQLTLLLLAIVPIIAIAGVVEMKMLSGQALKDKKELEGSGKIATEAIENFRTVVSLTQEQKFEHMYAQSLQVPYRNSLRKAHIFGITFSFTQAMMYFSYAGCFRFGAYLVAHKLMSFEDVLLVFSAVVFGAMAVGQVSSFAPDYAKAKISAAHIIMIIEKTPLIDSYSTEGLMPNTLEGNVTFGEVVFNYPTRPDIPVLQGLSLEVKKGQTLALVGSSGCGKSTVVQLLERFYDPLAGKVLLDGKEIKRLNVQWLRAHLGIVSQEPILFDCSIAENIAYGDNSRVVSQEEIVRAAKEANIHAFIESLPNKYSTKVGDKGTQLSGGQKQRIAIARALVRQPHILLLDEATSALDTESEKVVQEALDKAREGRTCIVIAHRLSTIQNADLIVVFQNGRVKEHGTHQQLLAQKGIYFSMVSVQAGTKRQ
Chain of Human Serum Albumin (HSA) (P02768 25-609): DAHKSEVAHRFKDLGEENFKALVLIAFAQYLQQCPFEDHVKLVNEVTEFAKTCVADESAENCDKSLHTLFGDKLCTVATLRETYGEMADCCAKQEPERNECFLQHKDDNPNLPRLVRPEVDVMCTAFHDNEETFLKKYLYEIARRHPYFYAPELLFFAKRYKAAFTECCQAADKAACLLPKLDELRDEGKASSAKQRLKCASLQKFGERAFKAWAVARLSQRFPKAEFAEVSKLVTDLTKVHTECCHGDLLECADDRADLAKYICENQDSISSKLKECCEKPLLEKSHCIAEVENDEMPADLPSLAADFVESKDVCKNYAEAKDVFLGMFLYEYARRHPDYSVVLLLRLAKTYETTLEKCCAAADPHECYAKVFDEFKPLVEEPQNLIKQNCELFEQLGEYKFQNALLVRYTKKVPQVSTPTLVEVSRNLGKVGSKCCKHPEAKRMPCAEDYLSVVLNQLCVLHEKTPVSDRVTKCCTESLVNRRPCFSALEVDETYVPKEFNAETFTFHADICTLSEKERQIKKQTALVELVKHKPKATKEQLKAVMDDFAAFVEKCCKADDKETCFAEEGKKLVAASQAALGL
T1 sequence (P08684 whole entry): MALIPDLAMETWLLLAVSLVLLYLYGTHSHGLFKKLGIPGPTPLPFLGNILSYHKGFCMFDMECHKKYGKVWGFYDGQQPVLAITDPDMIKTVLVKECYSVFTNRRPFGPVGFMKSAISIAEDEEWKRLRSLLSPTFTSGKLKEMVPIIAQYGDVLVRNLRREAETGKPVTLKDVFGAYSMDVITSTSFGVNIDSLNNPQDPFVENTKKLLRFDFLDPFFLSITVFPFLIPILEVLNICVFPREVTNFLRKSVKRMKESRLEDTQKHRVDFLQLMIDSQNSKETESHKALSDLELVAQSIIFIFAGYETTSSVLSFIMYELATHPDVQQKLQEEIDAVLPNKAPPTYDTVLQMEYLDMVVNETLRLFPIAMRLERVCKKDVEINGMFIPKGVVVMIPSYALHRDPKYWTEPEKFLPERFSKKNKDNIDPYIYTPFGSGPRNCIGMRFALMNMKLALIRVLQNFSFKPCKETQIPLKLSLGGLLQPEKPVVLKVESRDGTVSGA

On to `Cc1nc(Nc2ncc(C(=O)Nc3c(C)cccc3Cl)s2)cc(N2CCN(CCO)CC2)n1` [Dasatinib, dasatinib, reference compound], for which the IC50 in the series with LN-229 (Homo sapiens, LN-229, 72 h) was 24.7 µM; with LN-229 (72 h) it was 24.7 ± 1.03 µM; with U87, 6.14 ± 0.464 µM; in the series on U87 (Homo sapiens, U-87 MG) it was 6.1 µM; in the series on MCF-7/Adr [2], 40 µM; with U87-TxR, 8.52 ± 0.691 µM. In the series on U87-TxR (Homo sapiens, U87-TxR), this molecule displayed an IC50 of 8.5 µM. In series [1], the oral bioavailability is 14%. The “P-gp activity (Rho 123 intracellular accumulation)” value on P-gp [3] is reported as “did not show a similar activity”. Besides, the P-gp expression entry with P-gp [4] is recorded as “increased P-gp expression”. Also, the “reversal of doxorubicin resistance” value in the series on MCF-7/Adr [5] is 3.35 fold.

For `CC(=O)O[C@H]1C(=O)[C@@]2(C)[C@H]([C@H](OC(=O)c3ccccc3)[C@]3(O)C[C@H](OC(=O)[C@H](O)[C@@H](NC(=O)c4ccccc4)c4ccccc4)C(C)=C1C3(C)C)[C@]1(OC(C)=O)CO[C@@H]1C[C@@H]2O` [PTX, paclitaxel, reference compound], in the series on U87-TxR cells (Homo sapiens, PTX alone, read-out: IC50 ± S.D. for PXT), the IC50 was 2.84 ± 0.358 µM.

In turn, `COc1cc2c(cc1OC)CN(CCc1ccc(NC(=O)c3cc(OC)c(OC)cc3NC(=O)c3cnc4ccccc4c3)cc1)CC2` [TQ, tariquidar, reference compound] showed an IC50 against P-gp [3] (TQ values in nM (footnote a)) of under 1 nM.

Turning to `CN1CCN(CCOC(=O)N(c2cccc(Br)c2)c2nc(SCCN3CCOCC3)nc3c2cnn3CC(Cl)c2ccccc2)CC1` (stereo not shown) [pro-Si306], the IC50 in the series with LN-229 (Homo sapiens, LN-229, 72 h) is 3.07 ± 0.272 µM; in the series on BT-138, 30.7 ± 4.75 µM; in the series with U87 it was 3.04 ± 0.343 µM; with U87 (Homo sapiens, U-87 MG) it was about 3 µM; in the series with U87-TxR (Homo sapiens, U87-TxR), 3.42 ± 0.359 µM; against P-gp [3], 3800 nM and 3750 nM. Moreover, the “Relative Reversal of PTX resistance” value was 4.47 *** in the series with U87-TxR cells (0.2 µM of the compound); 7.98 in the series with U87-TxR cells (0.5 µM of the compound); 7.98 *** in the series on U87-TxR cells (0.5 µM of the compound, listed as Pro-Si306). For the same molecule, the “detection in plasma and brain” value in series [6] was “detected neither into the plasma nor in the brain”. On P-gp [3], the “P-gp activity (Rho 123 intracellular accumulation)” value is “significant suppression of P-gp activity”. Further, the inhibition at 40 min against CYP3A4 (pH 7.4, probe testosterone 100 μM (6β-hydroxylation), at a lower concentration (1–50 μM range)) is -15%. Further, the “interaction with CYP3A4” value on CYP3A4 (up to 50 μM) was “do not interact with CYP3A4”. The solubility result in [7] is given as “enhanced solubility”. For the same molecule, the BMAX in [8] amounted to 78.00 ± 4.2; in series [9], 96.69 ± 1.5. Also, the Kd in series [8] turned out to be 21.4 ± 4.5 µM. Also, the Kd at 30 min in [9] (alpha-1-acid glycoprotein (10 µM) in phosphate buffer) was determined as 9.28 ± 0.7 µM.
